Tested on: RRE
Test: Displacement assay using X2S
Format: binding, HIV-1
From the text: In this Example, X2S was used to measure a binding affinity between a test substance and RRE. As the test substance, Rev protein (supplied by Professor Takashi MORII, Graduates School of Energy Science, Kyoto University), aminoglycoside antibiotic neomycin (available from Sigma-Aldrich, product number; N-1876) (hereinafter, simply referred to as “neomycin”), and thrombin (available from Bachem, product number; AG H-8550) were used. […] The structure of Rev protein is shown in FIG. 9, and the amino acid sequence of Rev protein is shown in SEQ ID NO: 5. FIG. 9 is a view schematically illustrating the structure of Rev protein. Further, the structure of thrombin is shown in FIG. 10, and the amino acid sequence of thrombin is shown in SEQ ID NO: 6. FIG. 10 is a view schematically illustrating the structure of thrombin.
Firstly, in the same manner as in Example 3, X2S and RRE were dissolved in a cacodylate buffer solution (sodium cacodylate: 10 mM, pH 7.0; NaCl: 100 mM) each at 2 μM. Thus, an X2S-RRE solution was prepared.
To the X2S-RRE solution, Rev protein was added in steps at 0 μM, 0.4 μM, 0.8 μM, 1.2 μM, 1.6 μM, 2.0 μM, 2.4 μM, 2.8 μM, 3.2 μM, 3.6 μM, and 4.0 μM. Further, a fluorescence intensity was measured at each concentration. Similarly, to the X2S-RRE solution, neomycin was added in steps at 0 μM, 0.4 μM, 0.8 μM, 1.2 μM, 1.6 μM, 2.0 μM, 2.4 μM, 2.8 μM, 3.2 μM, 3.6 μM, and 4.0 μM. Further, a fluorescence intensity was measured at each concentration. Similarly, to the X2S-RRE solution, thrombin was added in steps at 0 μM, 0.4 μM, 0.8 μM, 1.2 μM, 1.6 μM, 2.0 μM, 2.4 μM, 2.8 μM, 3.2 μM, 3.6 μM, and 4.0 μM. Further, a fluorescence intensity was measured at each concentration. The fluorescence intensities were measured in the same manner as that described in Example 2.
FIG. 11 is a view illustrating a result of the measurement of a binding affinity between Rev protein and RRE; FIG. 12 is a view illustrating a result of the measurement of a binding affinity between neomycin and RRE; and FIG. 13 is a view illustrating a result of the measurement of a binding affinity between thrombin and RRE. In each of FIGS. 11 to 13, the horizontal axis represents the fluorescence wavelength, whereas the vertical axis represents the fluorescence intensity. […] Furthermore, along the direction of the arrow extending from the curved line at the bottom, the curved lines are arranged in order of increasing amount of the test substance which was added.
FIG. 14 is a view plotting the fluorescence intensities at a fluorescence wavelength of 453 nm shown in the results illustrated in FIGS. 11 to 13. The horizontal axis represents the concentration of each test substance, whereas the vertical axis represents the fluorescence intensity. In FIG. 14, the circle marks represent the result obtained in the case involving use of Rev protein, the square marks represent the result obtained in the case involving use of neomycin, and the triangle marks represent the result obtained in the case involving use of thrombin.
A displacement assay using X2S was performed in the same manner as that described in Example 5, except that, in this Example, fluorescence was measured also when Rev protein was added at concentrations of 4.4 μM and 4.8 μM.
FIG. 16 is a view illustrating the result of the displacement assay using X2S. The horizontal axis represents the fluorescence wavelength, whereas the vertical axis represents the fluorescence intensity.

`NCCOc1ccc2oc3ccc(OCCN)cc3c(=O)c2c1` [X2S, 2,7-bis(2-aminoethoxy)xanthen-9-one] was tested. Which “change in the fluorescence intensity, X2S compared with ethidium bromide” value (FIG. 11 compared with FIG. 15) did it give?
Its value is “greater in the case involving use of X2S than in the case involving use of ethidium bromide”.

And the “concentration at which a change in fluorescence intensity was still clearly observed” value (Rev protein up to 4.8 μM)?
Its value is 3.2 µM.

What about the “ultimate increase of fluorescence intensity” value (Rev protein up to 4.8 μM) of the same molecule?
The value was “approximately 80%”.

Reference: patent US8741659B2, “Composition for measuring the binding affinity between nucleic acid and test substance, and use thereof” (Osaka University, priority 2007, dated 2014)
